Legend:
Assay type in all cases: in vivo
[1] = tested on: Cirsium arvense (Thistle, Canada); assay: Postemergence herbicidal activity in cereal crops (Example 14); details: wheat cropping systems, postemergence spray, 21 DAA
Kochia scoparia (Kochia) = assay: as above; details: wheat cropping systems, postemergence spray, 35 g ae/ha, 21 DAA
[2] = tested on: Salsola kali (Thistle, Russian); assay: as above; details: wheat cropping systems, postemergence spray, 35 g ae/ha, 21 DAA
[3] = tested on: Cirsium arvense (Thistle, Canada); assay: Postemergence herbicidal activity in pastures (Example 15); details: pasture cropping systems, postemergence spray, 35 DAA
Experimental: (§1) Seeds of the desired test plant species were planted in Sun Gro Metro-Mix® 360 planting mixture, which typically has a pH of 6.0 to 6.8 and an organic matter content of about 30 percent, in plastic pots with a surface area of 139.7 cm^2. When required to ensure good germination and healthy plants, a fungicide treatment and/or other chemical or physical treatment was applied. The plants were grown with an approximate 14 h photoperiod which was maintained at about 24° C. during the day and 21° C. during the night. Nutrients and water were added on a regular basis and supplemental lighting was provided with overhead metal halide 1000-Watt lamps as necessary. The plants were employed for testing when they reached the four or six true leaf stage, depending on species.
(§2) Treatments consisted of esters of compounds 39 and G. Compound G is methyl 4-amino-3-chloro-6-(4-chloro-2-fluoro-3-methoxyphenyl)picolinate. A weighed amount, determined by the highest rate to be tested, of each test compound was placed in a 25 mL glass vial and was dissolved in 8 mL of a 97:3 v/v mixture of acetone and DMSO to obtain concentrated stock solutions. […] The concentrated stock solutions obtained were diluted with 16 mL of an aqueous mixture containing acetone, water, isopropyl alcohol, DMSO, Agri-dex crop oil concentrate, and Triton® X-77 surfactant in a 64.7:26.0:6.7:2.0:0.7:0.01 v/v ratio to obtain spray solutions containing the highest application rates. Additional application rates were obtained by serial dilution of 12 mL of the high rate solution into a solution containing 4 mL of a 97:3 v/v mixture of acetone and DMSO and 8 mL of an aqueous mixture containing acetone, water, isopropyl alcohol, DMSO, Agri-dex crop oil concentrate, and Triton® X-77 surfactant in a 48.5:39.0:10.0:1.5:1.0:0.02 v/v ratio to obtain ½×, ¼×, ⅛× and 1/16× rates of the high rate. Compound requirements are based upon a 12 mL application volume at a rate of 187 L/ha. Formulated compounds were applied to the plant material with an overhead Mandel track sprayer equipped with 8002E nozzles calibrated to deliver 187 L/ha over an application area of 0.503 m^2 at a spray height of 18 inches (43 cm) above average plant canopy height. Control plants were sprayed in the same manner with the blank.
(§3) The treated plants and control plants were placed in a greenhouse as described above and watered by sub-irrigation to prevent wash-off of the test compounds. After 35 d, the condition of the test plants as compared with that of the untreated plants was determined visually and scored on a scale of 0 to 100 percent where 0 corresponds to no injury and 100 corresponds to complete kill.

[4] = tested on: Solidago L. spec (Goldenrod); assay: as above; details: pasture cropping systems, postemergence spray, 35 DAA
Experimental: as §1, §2, §3

SMILES	Visual Injury (%) CIRAR ([1]; 8.75 g ae/ha) [%]	Visual Injury (%) CIRAR ([1]; 17.5 g ae/ha) [%]	Visual Injury (%) KCHSC (Kochia scoparia (Kochia)) [%]	Visual Injury (%) SASKR [2] [%]	Visual Injury (%) CIRAR ([3]; 17.5 g ae/ha) [%]	Visual Injury (%) CIRAR ([3]; 35 g ae/ha) [%]	Visual Injury (%) SOOSS ([4]; 70 g ae/ha) [%]	Visual Injury (%) SOOSS ([4]; 140 g ae/ha) [%]
COc1c(Cl)ccc(-c2cc(N)c(Cl)c(C(=O)OCc3ccccc3)n2)c1F [Compound 39]	90	95	95	90	100	95	85	100
COC(=O)c1nc(-c2ccc(Cl)c(OC)c2F)cc(N)c1Cl [Compound G, methyl 4-amino-3-chloro-6-(4-chloro-2-fluoro-3-methoxyphenyl)picolinate, reference compound]	70	80	87	80	40	60	30	50

Reference: patent US9169217B2, “Arylalkyl esters of 4-amino-6-(substituted phenyl)-picolinates and 6-amino-2-(substituted phenyl)-pyrimidinecarboxylates and their use as selective herbicides for crops” (Dow AgroSciences LLC, priority 2011, dated 2015)
